This is an account of results in patent US20210340629A1, “BIOMARKERS FOR CANCER THERAPY” (The Council of the Queensland Institute of Medical Research, priority 2018, published 2021).

Assay [1] concerns PD-L1 and PD-1 in CD8+ T cells. Briefly: Flow cytometry analysis of tumor infiltrating lymphocytes from AT3 tumors. Format: in vivo, C57BL/6 mice. The note with it: TILs from AT3 tumors, UNC0642 25 mg/kg every 2 days for 14 days, FIG. 18. The text has this: C57BL/6 mice were purchased from the ARC Animal Resources Centre and used between the ages of 6 and 16 weeks. Groups of 3 to 8 mice per experiment were used for experimental assays, to ensure adequate power to detect biological differences. All experiments were approved by the QIMR Berghofer Medical Research Institute Animal Ethics Committee.
The C57BL/6 AT3 mammary adenocarcinoma (obtained from Dr. Trina Stewart in 2009, Peter MacCallum Cancer Centre, Melbourne, Australia) were maintained as previously described (Casciello et al PNAS 2017). The AT3 cell line was tested negative for mycoplasma. For in vivo experiments, 1×10^5 cells were subcutaneously injected into mice in a 100 μL volume.
AT3 tumor growth was measured using a digital caliper, and tumor volumes were presented as mean±SEM. For flow cytometry analyses of intratumor immune cells, mice bearing established AT3 tumor (days 14-19) were treated with the indicated antibodies or reagents and immune cells were isolated 48 to 72 hours post treatment.
Tumors tissues were harvested from mice that had been treated with mAb or otherwise and processed for flow cytometry analysis. […]

Another assay concerns D20 melanoma cells. Briefly: In vivo tumor growth analysis, D20 melanoma xenograft. Details: species or system SCID mice. The note with it: 5 mg/kg every two days for two weeks, vs vehicle control. Here is the method: To determine the effect of inhibiting G9a on tumor growth, 6-8 week old SCID mice were subcutaneously injected with D20 BRAF mutant cutaneous melanoma cells. Palpable tumors were allowed to establish (approx. 10 days) before UNC0642 was administered at 5 mg/kg every two days for two weeks. The D20 cell line was used in the subcutaneous model as it had been shown previously to be tumorigenic in vivo and was also sensitive to the drug in vitro.
Groups of 8 SCID mice per treatment group were used for xenograft studies to ensure adequate power to detect biological differences. All experiments were approved by the QIMR Berghofer Medical Research Institute Animal Ethics Committee. D20 melanoma cells (2×106) were mixed 1:1 ratio with Growth factor-reduced Matrigel (BD Biosciences) and injected subcutaneously into the flank of 6-8 week old mice in 100 μL volume (day 0) and treatments, either DMSO or UNC0642 at 5 mg/kg were administered as indicated in the figure legends. Tumor volumes (width2×length/2) were measured using a digital calliper, and presented as mean±SD. All animals were sacrificed at the same time and the tumors were dissected for further analysis.

In the case of `COc1cc2c(NC3CCN(C(C)C)CC3)nc(N3CCC(F)(F)CC3)nc2cc1OCCCN1CCCC1` [UNC0642], in assay [1], the “PD-L1 and PD-1 in CD8+ T cells” value is “down-regulation”. In addition, the tumor weight result in the assay on D20 melanoma cells (end-point, P<0.01, FIG. 10B) is reported as “statistically significantly reduced”. Also, in the assay on D20 melanoma cells (intraperitoneally, P<0.05, FIG. 10A), the tumor growth entry is recorded as “statistically significantly reduced”.
